Here are results for two compounds from patent US9926293B2, “Multivalent RAS binding compounds” (THE TRUSTEES OF COLUMBIA UNIVERSITY IN THE CITY OF NEW YORK, priority 2014, dated 2018).

Where two headings read alike, the source gives them in different places.

Broadly, the Kd is the free concentration of one partner at which half of the binding sites on the other are occupied at equilibrium, for simple one-to-one binding.

Data set [1] has as its system caspases 3 and 7 in HT-1080 (NRAS^Q61K) cells. Nature of the data set: Caspase 3/7 activation assay. The note with it: staurosporine 5 μM, 24 hours. In kind it is cell-based. On the procedure: Caspase 3/7 Activation Assay
HT-1080 cells were seeded into 384-well plates at 1,000 cells/well. After 12-16 hours, compounds (as 50 mM stocks in DMSO) were arrayed in a dilution series in 384-well polypropylene plates. Compound solutions were transferred at a 1:5 dilution into the assay plates for a total volume of 40 μL. After 24 hours, 8 μL of a 1:100 solution of rhodamine 110 bis-(N-CBZ-1-aspartyl-1-glutamyl-1-valyl-aspartic acid amide) to lysis buffer (APO-1, Promega) was added and the plate was wrapped in aluminum foil and incubated at room temperature for 16 hours. Fluorescence intensity was then determined using a Victor3 plate reader (Perkin Elmer) with a 490 nm excitation filter and a 535 nm emission filter. A viability curve was performed in parallel with the same incubation time using the procedure described in the “cell viability assays” section.

Data set [2] in a line: Aqueous solubility as noted during MST. To be noted: noted in MST buffer. Type of data set: physicochemical.
In data set [3] the test system is MDA-MB-231 cell line (KRAS^G13D). In words: Multicellular tumor spheroids in low adherence plates. The note with it: 72 hours; for size of multicellular tumor spheroids: low-adherence plates. In kind it is cell-based. As for the experimental part:
Multicellular Tumor Spheroids
Multicellular tumor spheroids (MCTSs) were grown in 96-well Corningware Ultra Low Attachment (ULA) Plates (CLS 3474). 100 μL of cell suspension containing 2×10^4 cells/ml were added to each well of the ULA plate containing 100 μL of a 2× solution of the desired concentration of compounds. Cells were incubated at 37° C., 5% CO2 for 72 hours to allow for MCTS formation. After 72 hours, 50 μL of a 50% solution of Alamar blue and medium was added and incubated for 12 hours prior to measurements on a Victor3 plate reader as previously described.

Data set [4] has as its system phosphorylated AKT in BJeLR cells. Nature of the data set: Western blot of phosphorylated AKT. Type of data set: cell-based. The note with it: 2 μM and 8 μM, 24 hours, serum free. As for the experimental part: FIG. 21A-FIG. 21B show BJeLR cells were treated as described in FIG. 19A-FIG. 19B and the lysate was subjected to detection of phosphorylated AKT ([…]) and total AKT by western blotting (FIG. 21A).
(§1) BJeLR cells were seeded in 60 mm dishes at 1 million cells/dish in media containing DMEM and 10% FBS with 1% penicillin and streptomycin (PS), 12-16 hours prior to use. The medium was then aspirated and compounds added as solutions in serum free medium (DMEM with 1% PS) to the dishes and treated for 24 hours or at the indicated time points. Following treatment, the medium was aspirated from each dish and cells were washed twice with PBS. […] Antibodies for pERK1/2, ERK1/2, pAKT ser473, AKT, pan-RAS, RALA, PI3Kgamma (Cell signaling), and RAF-1 (Santa Cruz) were detected using a goat anti-rabbit or goat anti-mouse IgG antibody conjugated to an IRdye at 800CW and 680CW conjugated, respectively (Li-COR biosciences).
A general note: A western blot detects proteins with antibodies after separation by electrophoresis.

The next data set addresses T1, GppNHp-loaded KRASG12D (Homo sapiens, UniProt P01116, G12D).
T1 construct: made in house; host or cells: Escherichia coli BL21-Gold (DE3)
Nature of the data set: Microscale thermophoresis, lysine NT-647-labeled GppNHp-loaded KRAS^G12D. In kind it is binding. To be noted: read-out: dissociation constant KD. On the procedure: Microscale Thermophoresis
KRAS^G12D (250 μM) in 25 mM HEPES, 100 mM sodium chloride, 2 mM TCEP with 20 mM EDTA and 1 mM GppNHp was shaken at 220 rpm at 30° C. to remove the endogenous nucleotide, The solution was placed on ice for 2 minutes prior to the addition of 65 mM MgCl2. After an additional 10 minutes incubation on ice, 200 uL of a 10 uM solution of KRAS^G12D was combined with 200 uL of a 20 uM solution of NT-647-NHS-ester dye (from a 652.4 μM stock). The protein/dye mixture was rotated at 4° C. for 30 minutes, before being separated from the excess dye and buffer exchanged into 25 mM Tris, 100 mM sodium chloride, 2 mM TCEP, and 5 mM MgCl2 via a nap-5 column. The test compounds were arrayed across a 16-point dilution series consisting of 1.5% DMSO with 25 mM Tris, 100 mM NaCl, 2 mM TCEP, 5 mM MgCl2 and 0.05% tween-20. Thermophoretic movement of the fluorescently labeled protein with the inhibitors was performed using a Monolith NT.115 (Nanotemper Technologies). RALA and RHOA were purchased commercially from Abcam (RALA CN:ab102555, RHOA CN:ab101594).
In another set of experiments, the top D38-A59 two-site multivalent compounds were evaluated by a RAS pulldown using the RAS binding domain of CRAF (the top two hits are shown in FIG. 14D). This abrogation of binding between RAS and its effector protein was also evident in the RAS-RALGDS interaction (FIG. 14E). To quantify the binding of the two-site compounds to RAS, MST was performed again using lysine NT-647-labeled, GppNHp-loaded KRAS^G12D. […] The third (Y32) site was extended into (compound 34MEW95) using this scaffold.
Docking scores and dissociation constants for binding to GppNHp-bound KRAS^G12D (PDB:4DSN) were measured as set forth above for additional 2- and 3-site compounds by microscale thermophoresis.
(In MST a laser heats a spot of the sample, and binding alters the fluorescence response.)

In data set [5] the test system is phosphorylated ERK in BJeLR (HRAS^G12V). In words: Western blot of phosphorylated ERK. In kind it is cell-based. To be noted: 2 μM and 8 μM, 24 hours, serum free. On the procedure:
FIG. 19A-FIG. 19B show BJeLR cells were treated with DMSO, RAS inhibitor at 2 μM and 8 μM, U0126 at 8 μM, or BEZ-235 at 0.2 μM for 24 hours under serum free conditions. Cells were then lysed and the lysate was subjected to detection of phosphorylated Erk and total Erk by western blotting (FIG. 19A). Three independent experiments yielded essentially equivalent results.
as §1

Where [6] appears, read: 31MEW44 5 μM, 34MEW43 10 μM, 34MEW95 5 μM.

T1 sequence (P01116 1-169 isoform P01116-2 G12D): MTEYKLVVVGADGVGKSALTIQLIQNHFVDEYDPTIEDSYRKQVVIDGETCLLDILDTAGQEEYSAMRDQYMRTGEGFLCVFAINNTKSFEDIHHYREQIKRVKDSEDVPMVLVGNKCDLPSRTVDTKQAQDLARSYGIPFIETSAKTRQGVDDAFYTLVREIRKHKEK

Turning to `NC1(C(=O)NCCCn2cc(-c3ccc(OC(F)(F)F)cc3)c3cc(CN4CCN(Cc5c(Cl)cccc5Cl)CC4)ccc32)CCNCC1` [Compound 31MEW44, 4-amino-N-(3-(5-((4-(2,6-dichlorobenzyl)piperazin-1-yl)methyl)-3-(4-(trifluoromethoxy)phenyl)-1H-indol-1-yl)propyl)piperidine-4-carboxamide], the “fluorescence of caspase 3/7 substrate” value is “Increased fluorescence” in data set [1] (setting [6]); “Increased fluorescence” in data set [1] (31MEW44 2.5 and 5 μM). The aqueous solubility entry in data set [2] is on record as “more soluble”. Moreover, in data set [3] (20 μM), the “effect on three dimensional multicellular spheroids” value is “killed”. Moreover, the “size of multicellular tumor spheroids” value in data set [3] is reported as “decreased in size in a dose-dependent manner”. The “phosphorylated AKT” value in data set [4] was “dose-dependent decrease in phosphorylated AKT”. The dissociation constant (Kd) at GppNHp-loaded KRASG12D (MST, GppNHp-loaded KRAS^G12D, 34MEW43 and 34MEW95 estimated, no full dose-response curve) is 9 µM. Moreover, the pERK abundance entry in data set [5] is recorded as “effectively decreased pERK abundance in a dose-dependent manner”.
Consider `NC1(C(=O)NCCCn2cc(-c3cccc(F)c3)c3c(CN4CCN(CCOc5ccc(Cl)cc5)CC4)cccc32)CCNCC1` [Compound 34MEW43, 4-amino-N-(3-(4-((4-(2-(4-chlorophenoxy)ethyl)piperazin-1-yl)methyl)-3-(3-fluorophenyl)-1H-indol-1-yl)propyl)piperidine-4-carboxamide], for which the “fluorescence of caspase 3/7 substrate” value in data set [1] (setting [6]) is on record as “Increased fluorescence”. The aqueous solubility entry in data set [2] is “low aqueous solubility”. Besides, the “size of multicellular tumor spheroids” value in data set [3] was “decreased in size in a dose-dependent manner”. For the same compound, in data set [4], the “phosphorylated AKT” value is reported as “dose-dependent decrease in phosphorylated AKT”. Besides, at GppNHp-loaded KRASG12D, the dissociation constant (Kd) worked out at 73 µM. Moreover, in data set [5], the pERK abundance result is reported as “effectively decreased pERK abundance in a dose-dependent manner”.
